One series deals with Nav1.8 ion channel (Homo sapiens (Human), UniProt Q9Y5Y9). Description: Inhibitory activity on Nav1.8 ion channel, whole-cell patch-clamp on HEK293/Nav1.8. It is filed as cell-based. Particulars: HEK293/Nav1.8, whole-cell patch clamp, holding -80 mV, 1 μM TTX. On the procedure: Reagents were purchased from Sigma (St. Louis, MO) except NaOH and KOH for acid-base titration. The final concentrations of the test compounds were all prepared on the day of the test and then dissolved in an extracellular fluid. The extracellular fluid (mM) was NaCl, 137; KCl, 4; CaCl2), 1.8; MgCl2, 1; HEPES, 10; glucose 10; and pH 7.4 (NaOH titration). All test and control compound solutions contained 1 μM TTX. The intracellular fluid (mM) was: aspartic acid, 140; magnesium chloride, 2; ethylene glycol tetraacetic acid (EGTA), 11; and N-2-hydroxyethylpiperazine-N′-2-ethanesulfonic acid (HEPES), 10. The pH was adjusted to 7.4 with cesium hydroxide.
The test compounds were dissolved in dimethylsulfoxide (DMSO) at a concentration of 9 mM. On the day of the test, the compounds were then dissolved in the extracellular fluid and prepared into the required concentration.
The cells were transferred to a perfusion chamber and perfusion was carried out using the extracellular fluid. The intracellular fluid was thawed on the day of the experiment. The electrodes were produced by pulling with PC-10 (Narishige, Japan). Whole-cell patch-clamp recording was carried out. Noise was filtered at one fifth of the sampling frequency. The intracellular fluid with ¼ length of the electrode tube was added into the electrode, and the electrode was installed on a probe. The required Protocol was set, the interface was adjusted to Membrane test, and Stage was adjusted to Bath. A positive pressure was applied in the electrode. The tip of the electrode was contacted with the cell. The three-way valve of the air extractor was adjusted to a three-way state. A negative pressure was then applied to the electrode, so that the electrode and the cell formed a high-resistance seal. Stage was adjusted to Patch, and leak was controlled within −200 pA. A negative pressure was successively applied, so that cell membranes were broken, and a current path was formed. Perfusion was carried out by opening the suction filtration device and the extracellular fluid valve. The cell current was observed, and administration was started when the cell current was stable (at least 3 sweep current curves were overlapped). Administration was performed from low concentration to high concentration. The administration time of each concentration was not less than 2 min, and when the current was stable, the concentration was changed for administration.
For administration of the test samples, perfusion was carried out using a perfusion system utilizing the self gravity. […] During the period, the CV % of all peak current amplitudes should be less than 10% to exclude up and down fluctuations of the initial current. The average of the peak current amplitudes recorded for the last 10 times during the initial recording served as the current peak of the negative control. After the initial current was stable, the test samples were dosed starting from a low concentration until the 10 recorded peak currents were again stable or the peak currents were “constant” after and before administration after continuous administration for 5 min. We defined the following two cases as “stable” or “constant”: 1) if the absolute average of the peak current for 10 consecutive scans exceeded 200 pA and the CV value was less than 10%, 2) or the average of the peak current for 10 consecutive scans was between 200 pA and 50 pA and the CV value was less than 30%. The next detection of higher concentration was then given.
The average of the peak current of the last 10 scans of each concentration was taken as the peak current for that concentration for data analysis. If the stable state was not reached within 5 min, the peak current average of the last 10 scans at that time was used for data analysis as the peak current for that concentration. At the same time, the cells were discarded and no longer used for detection of higher concentration. At least two cells were tested per concentration of the compounds. […]
For orientation: Patch clamp records ionic current or voltage across a cell membrane.

The subject of the next series is incision pain model rats. Put plainly: Incision pain model in rats (Von-Frey mechanical pain threshold). Type of series: in vivo, male SD rat. Particulars: for Mechanical pain threshold (Mean ± SD), base value before modeling: baseline before modeling. On the procedure:
A male SD rat weighing 200-250 g was fixed in a prone position after anesthesia. The lateral hind limb sole of the rat was flattened upwards, and the toes were fixed using an operation adhesive tape. Sterilization was performed. A 0.5 cm position of the plantar heel of the animal was incised with a scalpel towards the toe end to incise the fascia and the skin to make a longitudinal incision of about 1 cm. After the flexor digitorum brevis was lifted by the surgical forceps, the abdomen of the muscle was longitudinally incised with a scalpel without completely cutting off the muscle. The skin was sutured and disinfected. On the second day of modeling, the animals were divided into different groups, 8 animals each group. Different compounds were separately orally administered intragastrically. Mechanical pain thresholds of the animals were detected with Von-Frey fiber filaments at different time points after administration. The specific grouping administration dose and detection time are detailed in Table 4 below.
(§1) The mechanical pain threshold detection method: The pelma of the hind limb to be tested of the test animal was continuously stimulated using the Von-Frey fiber filament to bend the fiber filament, and the foot shrinking reaction of the animal was observed. The tested animals were stimulated one by one according to the sequence of the gram number of the fiber filaments from small to large, and each gram number of the fiber filament was continuously used for stimulation for 5 times. If less than 3 positive reactions were present, the procedure described above was repeated using a larger grade of fiber filament, and if 3 or more positive reactions were present for the first time in the test, the fiber filament was the pain threshold for that animal (3 tests per animal for the average). Fiber filament gram number: 0.6, 1.0, 1.4, 2.0, 4.0, 6.0, 8.0, 10.0, and 15.0; the cut value was 15.0 g.

Series [1] concerns spinal nerve-ligated rats. Description: Spinal nerve ligation neuropathic pain model in rats (Von-Frey mechanical pain threshold). Type of series: in vivo, male SD rat. To be noted: SNL rats; for Mechanical pain threshold (Mean ± SD), base value before modeling: baseline before modeling.
From the text: A male SD rat weighing 180-220 g was placed on an operating table in a prone position after anesthesia. An incision was made along the spinal column near the hip bone of the animal, and the fascia and muscle were separated. The L5 transverse process was carefully snapped off with a tweezer. The L5 nerve was separated with a glass needle, and the L5 nerve was ligated with 5-0 ligature. The muscle and the skin were sutured and disinfected with iodophor. After 14 days of modeling, the animals were divided into different groups, 10 animals each group. Different compounds were separately orally administered intragastrically. Mechanical pain thresholds of the animals were detected with Von-Frey fiber filaments at different time points after administration. The specific administration dose and detection time are detailed in Table 3 below.
as §1

Series [2] is described as follows: Pharmacokinetic assay in mice. Particulars: male, ICR, mouse, plasma, oral intragastric administration, 10 mg/kg. Type of series: in vivo. On the procedure: Pharmacokinetic assay in mice was performed, wherein the mice used were 3 male ICR mice and fasted overnight. The mice were orally intragastrically dosed with the medicament (10 mg/kg). Blood was collected before administration and at 15 min, 30 min and 1 h, 2 h, 4 h, 6 h, 8 h, and 24 h after administration. Blood samples were centrifuged at 8000 rpm for 6 min at 4° C., and plasma was collected and stored at −20° C. The plasma at each time point was taken, and 3-5 times its amount of an acetonitrile solution containing an internal standard was added for mixing. The mixture was vortexed for 1 min and then centrifuged at 13000 rpm at 4° C. for 10 min. The supernatant was taken, and 3 times its amount of water was added for mixing. A proper amount of the resulting mixture was taken for LC-MS/MS analysis. The major pharmacokinetic parameters were analyzed using a non-compartmental model in the WinNonlin 7.0 software.

Structures are written as SMILES.

Usually IC50 stands for the concentration that gives 50% inhibition. In general, AUC(0-t) refers to the area under the concentration-time curve up to a stated or last time point. A lower AUC(0-t) goes with low exposure. The term Cmax denotes the peak of the concentration-time curve. One may read the Tmax as the time from dosing to the highest level. By half-life is commonly meant the time needed for the level to fall by half in the phase considered. A higher half-life goes with slow decline.

With `O=C(Nc1cnc[n+]([O-])c1)c1cc(Cl)c(Cl)cc1Oc1ccc(OC(F)(F)F)cc1` [Compound I-1, 5-(4,5-Dichloro-2-(4-(trifluoromethoxy)phenoxy)benzamido)pyrimidine 1-oxide], at Nav1.8 ion channel, the IC50 was 14 nM. For the same compound, the “Mechanical pain threshold (Mean ± SD), base value before modeling” value in the series with incision pain model rats (100 mpk group) amounted to 12.6 ± 1.7 g. Besides, in the series with incision pain model rats (100 mpk oral intragastric), the “Mechanical pain threshold (Mean ± SD), 1 h after administration” value worked out at 12.5 ± 1.9 g; the “Mechanical pain threshold (Mean ± SD), 3 h after administration” value is given as 11.4 ± 2.0 g; the “Mechanical pain threshold (Mean ± SD), 6 h after administration” value worked out at 8.4 ± 1.2 g. Also, the “Mechanical pain threshold (Mean ± SD), base value before modeling” value in series [1] (100 mpk group) came to 13.6 ± 1.7 g. In addition, in series [1] (100 mpk oral intragastric), the “Mechanical pain threshold (Mean ± SD), 1 h after administration” value is 11.0 ± 4.0 g and the “Mechanical pain threshold (Mean ± SD), 3 h after administration” value is listed as 11.1 ± 3.7 g. Also, in series [2], the exposure AUC(0-t) worked out at 17300 ng·h/mL, the highest level (Cmax) was 7370 ng/mL, the time to peak (Tmax) amounted to 15 min and the half-life is 164 min.
`CC(C)C[C@H](CN)CC(=O)O` [Pregabalin, reference compound]: the “Mechanical pain threshold (Mean ± SD), base value before modeling” value is 12.7 ± 1.7 g in the series with incision pain model rats (30 mpk group) and 13.6 ± 2.7 g in series [1] (30 mpk group). Further, the “Mechanical pain threshold (Mean ± SD), 1 h after administration” value in the series on incision pain model rats (30 mpk oral intragastric) came to 12.4 ± 1.9 g; in series [1] (30 mpk oral intragastric), 13.8 ± 2.3 g. Further, the “Mechanical pain threshold (Mean ± SD), 3 h after administration” value in the series with incision pain model rats (30 mpk oral intragastric) is 11.6 ± 1.1 g; in series [1] (30 mpk oral intragastric) it was 12.3 ± 2.9 g. Further, the “Mechanical pain threshold (Mean ± SD), 6 h after administration” value amounted to 11.3 ± 1.4 g in the series with incision pain model rats (30 mpk oral intragastric) and 12.1 ± 2.3 g in series [1] (30 mpk oral intragastric, 6 h).
